How the values were obtained:
Format in all cases: cell-based, Pseudomonas aeruginosa
[1] = system: P. aeruginosa PA14 wild type biofilm grown cells
[2] = system: P. aeruginosa PA14 wild type planktonic cells; experiment: microbe, parasite or virus in culture; conditions: for MBC: Pseudomonas aeruginosa, PA14, 24 h, read-out: MBC-P, MBC of planktonically grown cells
[3] = system: 45E7 mutant (PA1163 transposon insertion) biofilm grown cells
[4] = system: 45E7 mutant planktonic cells; experiment: microbe, parasite or virus in culture; conditions: for MBC: Pseudomonas aeruginosa, read-out: MBC-P, MBC of planktonically grown cells
[5] = system: 30B1 mutant (PA1874 transposon insertion) biofilm grown cells
[6] = system: 30B1 mutant planktonic cells; experiment: microbe, parasite or virus in culture; conditions: for MBC: Pseudomonas aeruginosa, read-out: MBC-P, MBC of planktonically grown cells
wild type colony biofilm = system: wild type colony biofilm
[7] = system: wild type flow cell biofilm

| Compound | MBC-B, MBC of biofilm grown cells [1] [µg/mL] | MBC-P, MBC of planktonically grown cells [2] [µg/mL] | MBC of biofilm grown 45E7 lower compared to the wt [3] [fold] | MBC-B, MBC of biofilm grown cells [3] [µg/mL] | MBC-P, MBC of planktonically grown cells [4] [µg/mL] | MBC-B, MBC of biofilm grown cells [5] [µg/mL] | MBC-P, MBC of planktonically grown cells [6] [µg/mL] | decrease of planktonic MBC relative to the biofilm-grown bacteria [2] [fold] | MBC [2] [µg/mL] | MBC [4] [µg/mL] | MBC [6] [µg/mL] | drop of viability in colony biofilm (wild type colony biofilm) [fold] | live versus dead cells in Tb-treated biofilm (BacLight) [7] |
| --- | --- | --- | --- | --- | --- | --- | --- | --- | --- | --- | --- | --- | --- |
| gentamycin [Gm] | 500 | 40 | 8 | 60 | 40 | 250 | 40 | – | – | – | – | – | – |
| NC[C@H]1O[C@H](O[C@H]2[C@H](O)[C@@H](O[C@H]3O[C@H](CO)[C@@H](O)[C@H](N)[C@H]3O)[C@H](N)C[C@@H]2N)[C@H](N)C[C@@H]1O [Tb, tobramycin] | 400 | – | 16 | 25 | – | 100 | – | 50 | 8 | 8 | 8 | ~100 | more live than dead cells |
| O=C(O)c1cn(C2CC2)c2cc(N3CCNCC3)c(F)cc2c1=O [Cip, ciprofloxacin] | 50 | – | 8 | 6 | – | 12.5 | – | – | 4 | 4 | 4 | – | – |
